The subject of experiment [1] is HIV-1 pseudovirus, primary Env HIV_25710–2.43. It counts as cell-based. Conditions: Env HIV_25710–2.43, subtype C; mean ± SD of 3 assays in triplicate. The procedure, abridged:
(§1)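 Env-pseudotyped viruses were made in HEK293T by cotransfecting an Env plasmid with the luciferase-encoding pSG3Δenv backbone. Threefold inhibitor dilutions were preincubated 1 h at room temperature with 100 TCID50 of virus, then added to TZM-bl cells (10^4/well) for 48 h at 37°C before luciferase was read.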

Experiment [2] deals with HIV-1 pseudovirus, primary Env B01. In kind it is cell-based. Conditions: Env B01, subtype B'; mean ± SD of 3 assays in triplicate. The procedure, abridged:
as §1

Experiment [3] deals with HIV-1 RHPA.c/2635. In kind it is cell-based. The conditions noted are these: Table 2; RHPA.c/2635, subtype B, R5; mean ± SD of 3 assays in triplicate. Summed up: as §1
Experiment [4] deals with HIV-1 pseudovirus, primary Env AE03. In kind it is cell-based. The conditions noted are these: Env AE03, subtype A/E; mean ± SD of 3 assays in triplicate. Summed up:
as §1

The target of experiment [5] is HIV-1 WITO.c/2474. In kind it is cell-based. The conditions noted are these: Table 2; WITO.c/2474, subtype B, R5; mean ± SD of 3 assays in triplicate. Summed up: as §1
In experiment [6] the test system is HIV-1 pseudovirus, primary Env Du156. It counts as cell-based. The conditions noted are these: Env Du156, subtype C; mean ± SD of 3 assays in triplicate. Summed up: as §1
Experiment [7] deals with HIV-1 LAI. In kind it is cell-based. The conditions noted are these: Table 2, subtype B, X4, mean ± SD of 3 assays in triplicate. Summed up: as §1
For experiment [8], the system named is HIV-1 pseudovirus, primary Env CH64.20. In kind it is cell-based. The conditions noted are these: Env CH64.20, subtype B/C; mean ± SD of 3 assays in triplicate. Summed up: as §1
In experiment [9] the target is HIV-1JRCSF. In kind it is cell-based. Summed up:
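HEK293T-derived virus (Env + pSG3Δenv pseudovirus, or molecular-clone isolate), titred as TCID50 on TZM-bl; 100 TCID50 + 3-fold cmpd dilutions, 1 h RT; onto TZM-bl 10^4/well, 48 h 37°C; luciferase read-out.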

For experiment [10], the target named is HIV-1 89.6. In kind it is cell-based. Conditions: Table 2; 89.6, subtype B, R5X4; mean ± SD of 3 assays in triplicate. Summed up:
as §1

In experiment [11] the test system is NL4-3WT pseudovirus. It counts as cell-based, HIV-1. Conditions: T-20 resistant, mean ± SD of 3 assays in triplicate, value in parentheses behind the bound. Here is the method:
(§2) The inhibitory activities of inhibitors against HIV-1 pseudoviruses and replication-competent isolates were measured as described previously. Briefly, HIV-1 pseudoviruses were generated via the cotransfection of HEK293T cells with an Env-expressing plasmid and a backbone plasmid that encodes Env-defective, luciferase-expressing HIV-1 genome (pSG3Δenv). Viral stocks of replication-competent HIV-1 isolates were generated by transfecting viral molecular clones into HEK293T cells. […] Inhibitors were prepared in 3-fold dilutions, mixed with 100 TCID50 of a virus, and then incubated for 1 h at room temperature. […] Luciferase activity was measured as described above.

The subject of experiment [12] is NL4-3V38A/N42T pseudovirus. In kind it is cell-based, HIV-1. Conditions: T-20 resistant, mean ± SD of 3 assays in triplicate. As for the experimental part:
as §2

[13] abbreviates: Fig 1, replication-competent virus, mean ± SD of three assays in triplicate, read-out: Anti-HIV activity (IC50, pM) JRCSF infection.
The mark [14] stands for this setting: Table 2, JR-CSF, subtype B, R5, mean ± SD of 3 assays in triplicate, read-out: Mean IC50.

Read-outs that look alike come from different tables or passages of the source. Peptide text beside a SMILES is read from it. * marks the point of attachment. Stearoyl = CCCCCCCCCCCCCCCCCC(=O)*; Palmitoyl = CCCCCCCCCCCCCCCC(=O)*

Broadly, the IC50 is the concentration at which inhibition is half-maximal.

In the case of `CCCCCCCCCCCCCCCC(=O)NCCCC[C@H](NC(=O)[C@H](CCC(=O)O)NC(=O)[C@H](CC(C)C)NC(=O)[C@H](CCCCN)NC(=O)[C@H](CCCCN)NC(=O)[C@H](CC(C)C)NC(=O)[C@H](CCC(=O)O)NC(=O)[C@H](CCC(=O)O)NC(=O)[C@H](CCC(=O)O)NC(=O)[C@H](CC(N)=O)NC(=O)[C@H](CCCCN)NC(=O)[C@H](CCCCN)NC(=O)[C@H](CCC(N)=O)NC(=O)[C@H](CCC(N)=O)NC(=O)[C@H](CCC(=O)O)NC(=O)[C@H](CCC(=O)O)NC(=O)[C@H](C)NC(=O)[C@H](CCCCN)NC(=O)[C@H](CCCCN)NC(=O)[C@H](CC(C)C)NC(=O)[C@H](CC(C)C)NC(=O)[C@H](CCC(=O)O)NC(=O)[C@H](CCC(=O)O)NC(=O)[C@@H](NC(=O)[C@H](CCCCN)NC(=O)[C@H](CCC(N)=O)NC(=O)[C@H](CCC(=O)O)NC(=O)[C@H](Cc1c[nH]c2ccccc12)NC(C)=O)[C@@H](C)CC)C(N)=O` [LP-52, reference compound] (Ac-WEQKIEELLKKAEEQQKKNEEELKKLEK(Palmitoyl)-NH2), the concentration for half-maximal inhibition (IC50) was determined as 0.0141 ± 0.00191 nM in [1]; 0.00706 ± 0.00116 nM in experiment [2]; 0.00942 ± 0.00134 nM in experiment [3]; 0.0109 ± 0.00189 nM in [4]; 0.00529 ± 0.00161 nM in experiment [5]; 0.00466 ± 0.00075 nM in experiment [6]. In addition, the half-maximal inhibitory concentration (IC50) worked out at 0.0122 ± 0.00093 nM in [7]; 0.00971 ± 0.00084 nM in experiment [8]; 7.47 ± 1.9 pM in experiment [9] (setting [13]); 8.02 ± 3.59 pM in [9] (setting [14]); 0.0175 ± 0.00205 nM in experiment [10].
In the case of `CCCCCCCCCCCCCCCCCC(=O)NCCCC[C@H](NC(=O)[C@H](CCC(=O)O)NC(=O)[C@H](CC(C)C)NC(=O)[C@H](CCCCN)NC(=O)[C@H](CCCCN)NC(=O)[C@H](CC(C)C)NC(=O)[C@H](CCC(=O)O)NC(=O)[C@H](CCC(=O)O)NC(=O)[C@H](CCC(=O)O)NC(=O)[C@H](CC(N)=O)NC(=O)[C@H](CCCCN)NC(=O)[C@H](CCCCN)NC(=O)[C@H](CCC(N)=O)NC(=O)[C@H](CCC(N)=O)NC(=O)[C@H](CCC(=O)O)NC(=O)[C@H](CCC(=O)O)NC(=O)[C@H](C)NC(=O)[C@H](CCCCN)NC(=O)[C@H](CCCCN)NC(=O)[C@H](CC(C)C)NC(=O)[C@H](CC(C)C)NC(=O)[C@H](CCC(=O)O)NC(=O)[C@H](CCC(=O)O)NC(=O)[C@@H](NC(C)=O)[C@@H](C)CC)C(N)=O` [LP-90] (Ac-IEELLKKAEEQQKKNEEELKKLEK(Stearoyl)-NH2), the half-maximal inhibitory concentration (IC50) came out at 0.03 nM in experiment [11]; 49.2 ± 2.19 nM in [12]; 0.016 ± 0.00293 nM in experiment [1]; 0.018 ± 0.00158 nM in experiment [2]; 0.00536 ± 0.00166 nM in [3]; 0.0141 ± 0.00417 nM in [4]. The IC50 in experiment [5] came to 0.00406 ± 0.00167 nM; in [6], 0.00363 ± 0.00067 nM; in experiment [7], 0.00834 ± 0.00154 nM; in experiment [8], 0.00772 ± 0.00267 nM; in [9] (setting [13]), 5.4 pM; in [9] (setting [14]) it was 9.33 ± 1.97 pM. Also, the concentration for half-maximal inhibition (IC50) in experiment [10] is 0.0574 ± 0.0109 nM.
On to “enfuvirtide [Lipopeptide T-20, reference compound]”, for which the half-maximal inhibitory concentration (IC50) came out at 166 ± 19 nM in experiment [11]; 5950 ± 700 nM in experiment [12]; 13.7 ± 1.85 nM in experiment [1]; 84.4 ± 3.69 nM in experiment [2]; 6.52 ± 1.33 nM in experiment [3]; 12.38 ± 0.109 nM in experiment [4]. The concentration for half-maximal inhibition (IC50) in experiment [5] was determined as 7.81 ± 1.62 nM; in experiment [6], 15.7 ± 1.58 nM; in experiment [7], 1.16 ± 0.103 nM; in experiment [8] it was 33.3 ± 1.18 nM; in experiment [9] (setting [13]), 4460 ± 1400 pM; in [9] (setting [14]), 2970 ± 788 pM. In [10], the IC50 was found to be 15.4 ± 5.88 nM.
